Results on five compounds are retold here after US5856309A, “Amidinopyrroline derivatives, processes for their production and pharmaceutical agents containing these compounds” (Boehringer Mannheim GmbH, priority 1997, dated 1999).

Bounds are passed on as bounds.

For orientation: IC50 means the concentration needed to halve the response being measured. Read a low IC50 as greater potency. The Ki is the equilibrium dissociation constant of an inhibitor or competing ligand from its target.

Assay [1] deals with isolated activated GpIIb/IIIa receptor (Homo sapiens, UniProt P05106+P08514). Kind of assay: GpIIb/IIIa fibrinogen Elisa. The conditions noted are these: inhibition of fibrinogen binding to coated GpIIb/IIIa receptor, optical density at 405 nm. As for the experimental part:
The GpIIb/IIIa fibrinogen Elisa is a modification of assays which are described in the following literature: Nachman, R. L. & Leung, L. L. K. (1982): J. Clin. Invest. 69: 263-269 and Wright, P. S. et al. (1993): Biochem. J. 293:263-267.
Microtiter plates were coated overnight with 2 μg/ml isolated activated GpIIb/IIIa receptor. After unbound receptor had been removed by washing several times the surface of the plates is blocked with 1% casein and it is washed again. The test substance is added at the required concentrations and the plates are incubated for 10 minutes while shaking. The natural ligand of the gpIIb/IIIa receptor, fibrinogen, is added. After incubating for 1 hour unbound fibrinogen is removed by washing several times and the bound fibrinogen is determined by means of a peroxidase-conjugated, anti-fibrinogen monoclonal antibody by measuring the optical density at 405 nm in an ELISA instrument. The inhibition of a fibrinogen-GpIIb/IIIa interaction results in a low optical density. The IC50 value was determined by a concentration/effect curve.

For assay [2], the target named is T1, bovine pancreatic trypsin (Bos taurus, UniProt P00760).
T1 construct: purchased Sigma
T1 sequence (P00760 24-246): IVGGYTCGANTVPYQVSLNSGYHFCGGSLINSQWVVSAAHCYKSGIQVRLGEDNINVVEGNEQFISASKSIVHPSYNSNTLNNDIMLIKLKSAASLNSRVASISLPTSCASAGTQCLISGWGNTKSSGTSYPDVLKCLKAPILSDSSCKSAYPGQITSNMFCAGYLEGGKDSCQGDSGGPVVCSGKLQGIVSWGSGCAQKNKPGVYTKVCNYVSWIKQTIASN
Put plainly: Inhibition of trypsin, kinetic measurement as described for thrombin. It counts as biochemical. Particulars: measured as described for thrombin, read-out: inhibition constant Ki (trypsin).
Experimental: The kinetic measurements were carried out in 0.1M phosphate buffer which contained 0.2M sodium chloride and 0.5% polyethylene glycol 6000 at a pH=7.5 and 25° C. using the substrate H-(D)-Phe-Pro-Arg-pNA (S-2238 Kabi) and human thrombin (Sigma, specific activity=2150 NIH units/mg) in polystyrene semimicro-cuvettes in a total volume of 1 ml.
For this the reaction was started first by adding 0.03 NIH units thrombin to a 100 μM solution of the substrate and the active substance. In a second experiment substrate was added to a solution of thrombin and the active substance which had been incubated for 5 min. The increase of the concentration of p-nitro-anilide with time was monitored spectrophotometrically for 12 min at 405 nm (UV-VIS spectrophotometer Lambda-2 from the Perkin-Elmer Company). […] The inhibition constant Ki was determined as follows. […] The increase in absorbance at 405 nm caused by the formation of p-nitroanilide was monitored for a time period of 12 min. Measurement points (time versus absorbance) were transferred to a PC at intervals of 20 sec. The rates Vo (changes in absorbance per see; measurements without inhibitor) and Vi (measurements with inhibitor) were determined from the data by linear regression. […] From one measurement series (constant inhibitor concentration, variable substrate concentrations) Km' and Vmax were determined by a non-linear fit to the equation [formula] […]

Assay [3] has as its system horse thrombin. Kind of assay: Thrombin time in citrate plasma (sphere coagulometer). It counts as biochemical. Particulars: citrate plasma of healthy donors, 37° C., control ca. 24 seconds. As for the experimental part:
A common test in clinical coagulation diagnostics is the thrombin time. This parameter detects the action of thrombin on fibrinogen and the formation of blood clots. Inhibitors of thrombin result in an increased thrombin time.
In order to obtain plasma 9 parts fresh blood from healthy donors are mixed with one part sodium citrate solution (0.11 mol/l) and centrifuged at ca. 3000 rpm for 10 min at room temperature. The plasma was removed by pipette and can be stored for ca. 8 h at room temperature.
200 ul citrate plasma was incubated for 2 min at 37° C. in a sphere coagulometer (KC10 from the Amelung Company). 10 ul dimethylsulfoxide (DMSO) or a solution of the active substance in DMSO was added to 190 ul preheated thrombin reagent (Boehringer Mannheim, GmbH; contains ca. 3 U/ml horse thrombin and 0.0125M Ca2+). A stopwatch was started when this 200 ul solution was added to the plasma and the time point at which coagulation starts was determined. […] [* the experiment was stopped after 5 minutes.]

Chain of isolated activated GpIIb/IIIa receptor (P08514 32-887 limits assumed): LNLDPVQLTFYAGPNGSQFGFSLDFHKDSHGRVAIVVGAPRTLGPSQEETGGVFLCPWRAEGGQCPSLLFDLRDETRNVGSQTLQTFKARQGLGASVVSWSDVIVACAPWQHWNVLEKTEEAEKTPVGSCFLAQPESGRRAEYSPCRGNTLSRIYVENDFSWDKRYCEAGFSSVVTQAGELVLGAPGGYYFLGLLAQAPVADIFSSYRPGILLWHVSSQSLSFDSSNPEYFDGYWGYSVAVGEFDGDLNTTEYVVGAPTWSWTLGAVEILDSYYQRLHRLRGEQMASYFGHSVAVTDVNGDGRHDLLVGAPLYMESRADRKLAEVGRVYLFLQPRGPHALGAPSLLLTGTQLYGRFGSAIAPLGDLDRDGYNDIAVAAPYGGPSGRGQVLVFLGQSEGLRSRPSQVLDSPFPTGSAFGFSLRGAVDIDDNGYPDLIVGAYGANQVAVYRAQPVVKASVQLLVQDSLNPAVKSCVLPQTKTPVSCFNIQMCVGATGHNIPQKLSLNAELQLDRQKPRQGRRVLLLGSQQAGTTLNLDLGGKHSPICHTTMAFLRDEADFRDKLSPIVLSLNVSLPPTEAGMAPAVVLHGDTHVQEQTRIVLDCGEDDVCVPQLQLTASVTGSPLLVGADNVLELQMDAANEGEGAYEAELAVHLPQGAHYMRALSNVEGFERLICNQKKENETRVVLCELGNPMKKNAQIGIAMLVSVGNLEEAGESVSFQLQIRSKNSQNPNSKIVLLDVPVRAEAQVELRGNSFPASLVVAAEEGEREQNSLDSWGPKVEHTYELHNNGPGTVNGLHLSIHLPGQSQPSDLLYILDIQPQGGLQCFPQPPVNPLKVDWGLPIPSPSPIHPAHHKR
Chain of isolated activated GpIIb/IIIa receptor (P08514 891-1039 partner limits assumed): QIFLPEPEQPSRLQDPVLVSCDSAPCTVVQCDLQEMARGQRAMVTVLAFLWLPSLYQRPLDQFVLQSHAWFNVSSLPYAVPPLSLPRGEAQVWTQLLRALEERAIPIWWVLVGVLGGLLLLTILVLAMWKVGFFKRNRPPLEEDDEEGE
Chain of isolated activated GpIIb/IIIa receptor (P05106 27-788): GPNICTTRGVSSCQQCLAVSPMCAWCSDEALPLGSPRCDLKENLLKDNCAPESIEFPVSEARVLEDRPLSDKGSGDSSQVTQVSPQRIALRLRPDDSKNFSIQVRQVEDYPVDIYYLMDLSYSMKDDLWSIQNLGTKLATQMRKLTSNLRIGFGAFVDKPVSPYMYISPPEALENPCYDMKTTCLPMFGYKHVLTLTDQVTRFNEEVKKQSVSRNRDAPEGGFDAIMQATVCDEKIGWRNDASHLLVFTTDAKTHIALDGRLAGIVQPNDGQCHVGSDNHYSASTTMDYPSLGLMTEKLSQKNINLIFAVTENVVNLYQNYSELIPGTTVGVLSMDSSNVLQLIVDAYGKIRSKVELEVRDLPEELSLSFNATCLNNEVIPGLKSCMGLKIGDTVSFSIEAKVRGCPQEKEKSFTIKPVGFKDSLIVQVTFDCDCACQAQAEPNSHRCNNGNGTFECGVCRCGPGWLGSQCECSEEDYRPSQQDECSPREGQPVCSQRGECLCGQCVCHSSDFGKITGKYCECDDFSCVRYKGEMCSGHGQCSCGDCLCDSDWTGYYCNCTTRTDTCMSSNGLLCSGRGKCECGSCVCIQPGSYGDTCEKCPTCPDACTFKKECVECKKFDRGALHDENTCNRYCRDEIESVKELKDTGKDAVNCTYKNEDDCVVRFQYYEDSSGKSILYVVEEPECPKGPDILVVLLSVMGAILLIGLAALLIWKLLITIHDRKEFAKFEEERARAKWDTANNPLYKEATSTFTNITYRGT

For `N=C(N)N1CC=C(CC(NC(=O)OCC(Cl)(Cl)Cl)C(=O)NCC(=O)N[C@@H](CC(=O)O)C(=O)N[C@@H](Cc2c[nH]c3ccccc23)C(=O)O)C1` (stereo partly drawn) [Example 8, Troc-Ada-Gly-Asp-Trp], the IC50 in assay [1] was found to be 0.4 µM.
Same read-out and setting: as for `N=C(N)N1CC=C(CC(NC(=O)OCC(Cl)(Cl)Cl)C(=O)NCC(=O)N[C@@H](CC(=O)O)C(=O)N[C@@H](Cc2ccccc2)C(=O)O)C1` (stereo partly drawn) [Example 9, Troc-Ada-Gly-Asp-Phe], the figure is 2.3 µM.
With D-Pla-D-Phe-L-Choi-Adc [Example 1], in assay [2], the Ki was found to be 0.1 µM. Further, the “increase of thrombin time” value is 5 s in assay [3] (test concentration 3.5 nM); 65 s in assay [3] (test concentration 34 nM); > 300 s in assay [3] (test concentration 340 nM, experiment stopped after 5 minutes).
With `N=C(N)N1CC=C(CC(NC(=O)OCC(Cl)(Cl)Cl)C(=O)NCC(=O)N[C@@H](CC(=O)O)C(=O)N[C@@H](CO)C(=O)O)C1` (stereo partly drawn) [Example 7, Troc-Ada-Gly-Asp-Ser], in assay [1], the IC50 was found to be 14.4 µM.
As for `N=C(N)N1CC=C(CC(N)C(=O)NCC(=O)N[C@@H](CC(=O)O)C(=O)N[C@@H](Cc2ccc(O)cc2)C(=O)O)C1` (stereo partly drawn) [Example 10, Ada-Gly-Asp-Tyr], the half-inhibitory concentration (IC50) in assay [1] came out at 2.4 µM.
